Test results published in patent US20070202166A1, “Method for increasing the rate and consistency of bioavailability of supplemental dietary ingredients” (priority 2006, published 2007).
Entries after “also recorded” stand apart in the source; their conditions may differ.

Columns and labels:
Assay type in all cases: physicochemical
[1] = Kinetic dissolution experiment: 1 g in 50 mL water, filtered at 1 and 5 minutes
Method: In order to expand on the results of the aforenoted experiments, a kinetic experiment was conducted to examine the change in the dissolution rate over short time periods.
1 g of sample was added to 50 mL water in a flask with a magnetic stir bar on a stirrer set at constant speed. Separate samples were filtered at 1 and 5 minutes. The pre-weighed filter papers (Whateman 41, particle retention 20-25 μm) were allowed to dry and the amount of sample remaining on the filter paper was determined.

[2] = Solubility test: powder added to stirred water until saturated, gravity filtered, dry residue on filter paper weighed; conditions: Whatman 41 filter paper, particle retention 20-25 μm
Method: In order to test the capacity of fine-milling to improve the rate bioavailability of substances, a simple test was performed. The test was conceived to mimic various elements involved in the processes of oral administration of a nutritional supplement. The key parameters involved were rate of dissolution and solubility, as it is understood that an ingested nutrient must be dissolved or reduced to a bio-transportable size in order to be utilized biochemically by the body.
The rates of dissolution and solubility of regular common nutritional supplements were compared to fine-milled versions within a fixed time. […] 100 mL of water was added to a 250 mL beaker and a magnetic stirring bar was placed in the beaker. The beaker was placed on a magnetic stirrer and stirred with low speed. 1 g of a given supplemental dietary ingredient powder was added incrementally to the beaker with the stirring speed constant until the solution visually appeared saturated. The solution was filtered by gravity through a pre-weighed filter paper (Whatman 41, particle retention 20-25 μm). […]
The ‘Fold Change’ represents the change in the amount of substance unable to pass through the filter as calculated by the amount of unfiltered regular substance divided by the amount of unfiltered fine-milled substance and represents the potential theoretical improvement in bioavailability.

[3] = Time to dissolve in stirred water, estimated by visual inspection; conditions: for Time taken to dissolve: 100 mL water, constant stirring
Method: In order to determine the effect of fine-milling on the dissolution rate, initial testing was performed to examine the rate of dissolution of common supplemental dietary ingredients. For the purposes of this disclosure, the term “regular” as used herein makes reference to non-fine-milled particles. 100 mL of water was placed into a 250 mL beaker and a magnetic stirrer bar was added to the beaker. The beaker was then placed on a magnetic stirrer was set to constant speed. […] The time required to dissolve was estimated by visual inspection. Equal amounts of the fine-milled ingredients were then added to the water and the time required to dissolve was estimated by visual inspection.

With `CN(CC(=O)O)C(=N)N.O` [Creatine Monohydrate] the “weight of unfiltered sample” value ([1]; Fine-milled, 1-minute interval, Monohydrate) was 0.33 g, the “weight of unfiltered sample” value ([1]; Fine-milled, 1-minute interval, listed as creatine, Monohydrate) was 0.32 g and the “weight of unfiltered sample” value ([1]; Fine-milled, 5-minute interval) was 0.27 g. For the same compound, the “weight of unfiltered sample” value ([1]; Regular, 1-minute interval, listed as Creatine monohydrate, Monohydrate) was 0.32 g, the “weight of unfiltered sample” value ([1]; Regular, 1-minute interval, listed as creatine, Monohydrate) was 0.33 g and the “weight of unfiltered sample” value ([1]; Regular, 5-minute interval) was 0.40 g. The “Dry Powder On Filter” value ([2]; Fine-milled powder) was 0.01 g, the “Dry Powder On Filter” value ([2]; Regular powder) was 0.19 g and the “Time taken to dissolve” value ([3]; Fine-milled powder, same amount as regular) was less than 5 min. The “Rate of dissolving, fine-milled compared with regular (in words)” value ([3]; Monohydrate) was “appeared to dissolved at the same rate in both the fine-milled and regular formats; also recorded: did not display a difference dependent on particle size” and the “Time taken to dissolve” value ([3]; Regular (non-milled) powder) was less than 5 min.
